Experimental data taken from the NIST ThermoML archive (doi:10.1021/je100508y).
± gives the expanded uncertainty stated by the source.

What was measured:
[1] = 298.15 K; 101.33 kPa; Liquid
[2] = refractive index (Na D-line) (dimensionless); settings: 298.15 K; 101.33 kPa; Liquid; Standard Abbe refractometry

CC1CCCCC1 [methylcyclohexane]
mass density [1]: 765.02 ± 0.25 kg/m3
refractive index [2]: 1.42062 ± 0.00068

CCOS(=O)(=O)[O-].CCn1cc[n+](C)c1 [1-ethyl-3-methylimidazolium ethyl sulfate]
mass density [1]: 1237.23 ± 1.8 kg/m3
refractive index [2]: 1.4791 ± 0.0007

C1CCCCCCC1 [cyclooctane]
mass density [1]: 831.47 ± 0.73 kg/m3
refractive index [2]: 1.45598 ± 0.0007

C1CCCCC1 [cyclohexane]
mass density [1]: 773.8 ± 0.25 kg/m3
refractive index [2]: 1.4236 ± 0.00068

c1ccccc1 [benzene]
mass density [1]: 873.57 ± 0.17 kg/m3
refractive index [2]: 1.49774 ± 0.00068
